In patent US20210205329A1 (The University of North Carolina at Chapel Hill, priority 2018, published 2021):
“And” between values parts separate entries of the source, which are not always exact repeats. Equal values may be shown once.

Tested on: innately activated TLR4 signal in P rat VTA
Test: TLR4 signaling in P rat VTA after systemic neurosteroid (immunoblot, MCP-1 ELISA)
Assay type: in vivo
Conditions: 45 minutes
Procedure: Immunoblotting for whole VTA lysates was done as previously described (Carlson et al, 2013). Briefly, VTA micropunches (1 mm thick) were lysed with CelLytic MT (dialyzable mild detergent, bicine, and 150 mM NaCl; Sigma-Aldrich) and protease and phosphatase inhibitor cocktail according to the manufacturer's instructions. Total protein was determined by the BCA assay. The proteins (10 μg/lane) were resolved by NuPAGE™ 4-12% Bis-Tris Midi Protein Gel (Thermo Fisher, Waltham, Mass.) electrophoresis and transferred using the iBlot 2 Dry Blotting System (Thermo Fisher, Waltham, Mass.). Blots were then exposed to an antibody for β-actin for normalization. Proteins were detected with enhanced chemilumenescence (GE Healthcare, Amersham, UK). Membranes were exposed to film under non-saturating conditions. Densitometric analysis was conducted using NIH Image 1.57.
Animals. Selectively bred, but alcohol naïve Alcohol-preferring (P) rats (male, 3-4 months old; 250-550 g) (n=7-9/group) were obtained from the Alcohol Research Center, Indiana University School of Medicine, Animals were double housed in Plexiglas cages containing corn cob bedding and food and water was available ad libitum. The colony room was maintained on a normal 12 hr light-dark cycle (light onset at 0700 hr). Procedures followed National Institutes of Health Guidelines under UNC institutional Animal Care and Use Committee approved protocols at University of North Carolina School of Medicine. Rats were habituated to handling for 7 days prior to administration of 3α,5α-THP (15 mg/kg, IP), pregnenolone (75 mg/kg, IP), 3α,5α-THDOC (15 mg/kg, IP), or vehicle (45% w/v 2-hydroxypropyl-p-cyclodextrin) and returned to their home cage. Rats were sacrificed after 45 minutes and the brain was removed and frozen at −80° C. until VTA micropunches were collected from 1 mm cryostat brain sections. This time point was selected because 3α,5α-THP is rapidly metabolized in vivo (Purdy et al, 1990), but has behavioral and pharmacological activity at this time point (Crawley et al, 1986).
ELISA. Brain tissue micropunches were lysed with Cellyte MT and the extracts were assayed for protein content by the BCA procedure (Pierce) and for MCP-1 using the rat MCP-1 ELISA kit (Raybiotech—ERC-MCP-1-CL; Norcross, Ga., USA) or for fracktalkine using the rat fractalkine ELISA kit (Raybiotech—ERC-CX3CL1-CL; Norcross, Ga., USA) as per manufacturer's instructions.
Since the neurosteroids inhibited the TLR4 activation signal in cultured macrophage cells, experiments were conducted to determine whether this also occurs in the brain. Selectively bred P rats that have an innately activated TLR4 signal in the VTA (Liu J, et al. (2011). Proc Natl Acad Sci USA 108(11): 4465-4470), were administered 3α,5α-THP (15 mg/kg, IP) or pregnenolone (75 mg/kg, IP), sacrificed after 45 minutes and examined for TLR4 signaling using parallel measures. […] 3α,5α-THP administration reduced the levels of MCP-1 by 20±9% (p<0.05), TRAF6 by 19±3% (p<0.0001), and CRF by 28±9% (p<0.01), with no effect on TLR4 protein expression (FIG. 4A). Pregnenolone administration had no effect on TRAF6, CRF, or TLR4.

SMILES | effect on TLR4 protein expression in VTA (15 mg/kg IP, P rats) | reduction of CRF levels in VTA (15 mg/kg IP, male P rats) | reduction of TRAF6 levels in VTA (15 mg/kg IP, male P rats) | reduction of MCP-1 levels in VTA (15 mg/kg IP, male P rats, ELISA) | effect on CRF in VTA (75 mg/kg IP, P rats) | effect on TLR4 in VTA (75 mg/kg IP, P rats) | effect on TRAF6 in VTA (75 mg/kg IP, P rats)
CC(=O)[C@H]1CC[C@H]2[C@@H]3CC[C@H]4C[C@H](O)CC[C@]4(C)[C@H]3CC[C@]12C [3α,5α-THP, (3α,5α)3-hydroxypregnan-20-one] | no effect | 28±9% and ~30% | 19±3% and ~20% | 20±9% and ~20% | – | – | –
CC(=O)[C@H]1CC[C@H]2[C@@H]3CC=C4C[C@@H](O)CC[C@]4(C)[C@H]3CC[C@]12C [pregnenolone] | – | – | – | – | no effect | no effect | no effect
